Here are results for two compounds from BindingDB's records for doi:10.7270/Q28P5XZM (Nmmlsc, 2011).

The target of the experiment is T1, General amino acid permease AGP1 (Saccharomyces cerevisiae (strain ATCC 204508 / S288c), UniProt P25376).
T1 sequence (P25376 whole entry): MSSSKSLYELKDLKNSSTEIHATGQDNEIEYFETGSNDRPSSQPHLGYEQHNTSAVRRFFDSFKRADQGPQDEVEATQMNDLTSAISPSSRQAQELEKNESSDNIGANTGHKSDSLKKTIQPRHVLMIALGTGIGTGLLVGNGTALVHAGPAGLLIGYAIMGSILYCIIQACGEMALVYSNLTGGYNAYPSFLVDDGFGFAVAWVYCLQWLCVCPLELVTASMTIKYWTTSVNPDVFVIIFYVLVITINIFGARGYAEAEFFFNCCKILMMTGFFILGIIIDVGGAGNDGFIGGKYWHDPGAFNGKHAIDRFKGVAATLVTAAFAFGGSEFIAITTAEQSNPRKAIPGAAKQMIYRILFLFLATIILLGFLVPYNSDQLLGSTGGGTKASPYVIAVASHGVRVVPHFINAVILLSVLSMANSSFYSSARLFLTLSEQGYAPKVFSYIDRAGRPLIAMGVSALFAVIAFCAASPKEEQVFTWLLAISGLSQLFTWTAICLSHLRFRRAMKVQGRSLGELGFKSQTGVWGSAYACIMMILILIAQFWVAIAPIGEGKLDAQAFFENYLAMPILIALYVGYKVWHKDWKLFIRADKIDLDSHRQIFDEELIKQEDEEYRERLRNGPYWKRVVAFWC
Description: analog potency on AGP1-GFP expression in yeast, SAR follow-up, cell-based, flow cytometry, S. cerevisiae, cherry pick 3 (AID 488790). The settings on record: inactive by the depositor's call. In general terms: In flow cytometry, cells or beads pass a laser one at a time.

In general, EC50 refers to the concentration giving half of the maximal effect. A low value points to a more potent agent. Take `Cc1ccc(C(=O)Nc2nc(-c3ccccn3)cs2)o1` [5-methyl-N-[4-(2-pyridinyl)-2-thiazolyl]-2-furancarboxamide]: a half-maximal effect (EC50) was put at 775 µM. Regarding `Nc1ncnc(Nc2cc(Cl)cc(Cl)c2)c1[N+](=O)[O-]` [MLS000581561], it took 76.4 µM to reach a half-maximal effect (EC50).
